The source made the active and inactive calls. The rule behind the calls is not given here. Peptide text beside a SMILES is read from it. * marks the point of attachment. X1 = CC(=O)N[C@H]1[C@H](O[C@H]2[C@@H](O)[C@H](O)[C@@H](CO)O[C@@H]2*)O[C@H](CO)[C@@H](O[C@@H]2O[C@H](CO)[C@H](O)[C@H](O[C@]3(C(=O)O)C[C@H](O)[C@@H](NC(C)=O)[C@H]([C@H](O)[C@H](O)CO)O3)[C@H]2O)[C@@H]1O; X2 = CC(=O)N[C@H]1[C@H](O[C@H]2[C@@H](O)[C@H](O)[C@@H](CO)O[C@@H]2*)O[C@H](CO)[C@@H](O[C@@H]2O[C@H](CO)[C@H](O)[C@H](O)[C@H]2O)[C@@H]1O; Hexanoyl(5-oxo) = CC(=O)CCCC(=O)*
Tests used:
Maackia amurensis = assay: Binding affinity to biotin-labeled Maackia amurensis agglutinin in pH 7.4 Tris buffer by fluorescence microarray method
Datura stramonium = assay: Binding affinity to biotin-labeled Datura stramonium agglutinin in pH 7.4 Tris buffer by fluorescence microarray method
Arachis hypogaea = assay: Binding affinity to biotin-labeled Arachis hypogaea agglutinin in pH 7.4 Tris buffer by fluorescence microarray method
[1] = test system: Sambucus racemosa subsp. sieboldiana; assay: Binding affinity to biotin-labeled Sambucus sieboldiana agglutinin in pH 7.4 Tris buffer by fluorescence microarray method
Erythrina crista-galli = assay: Binding affinity to biotin-labeled Erythrina crista-galli agglutinin in pH 7.4 Tris buffer by fluorescence microarray method
Triticum aestivum = assay: Binding affinity to biotin-labeled Wheat germ agglutinin in pH 7.4 Tris buffer by fluorescence microarray method
Canavalia ensiformis = assay: Binding affinity to biotin-labeled Canavalia ensiformis agglutinin in pH 7.4 Tris buffer by fluorescence microarray method
[2] = molecular target: Laminin subunit alpha-1 (Homo sapiens) (UniProt P25391); assay: Binding affinity to biotin-labeled human recombinant laminin-1 at 10 ug/ml in pH 7.4 Tris buffer by fluorescence microarray method
Homo sapiens [3] = organism: Homo sapiens; assay: Binding affinity to biotin-labeled human recombinant laminin-2 at 10 ug/ml in pH 7.4 Tris buffer by fluorescence microarray method
[4] = molecular target: Lactotransferrin (Homo sapiens) (UniProt P02788); assay: Binding affinity to biotin-labeled lactoferrin (unknown origin) at 10 ug/ml in pH 7.4 Tris buffer by fluorescence microarray method
[5] = molecular target: Laminin subunit alpha-1 (Homo sapiens) (UniProt P25391); assay: Binding affinity to biotin-labeled human recombinant laminin-1 at 10 ug/ml in pH 5.6 MES buffer by fluorescence microarray method
[6] = molecular target: Lactotransferrin (Homo sapiens) (UniProt P02788); assay: Binding affinity to biotin-labeled lactoferrin (unknown origin) at 10 ug/ml in pH 5.6 MES buffer by fluorescence microarray method
Homo sapiens [7] = organism: Homo sapiens; assay: Binding affinity to biotin-labeled human recombinant laminin-2 at 10 ug/ml in 5.6 MES buffer by fluorescence microarray method
[8] = Binding affinity to biotin-labeled Agaricus bisporus agglutinin in pH 7.4 Tris buffer by fluorescence microarray method

Sequence of Lactotransferrin (Homo sapiens) (P02788 whole entry): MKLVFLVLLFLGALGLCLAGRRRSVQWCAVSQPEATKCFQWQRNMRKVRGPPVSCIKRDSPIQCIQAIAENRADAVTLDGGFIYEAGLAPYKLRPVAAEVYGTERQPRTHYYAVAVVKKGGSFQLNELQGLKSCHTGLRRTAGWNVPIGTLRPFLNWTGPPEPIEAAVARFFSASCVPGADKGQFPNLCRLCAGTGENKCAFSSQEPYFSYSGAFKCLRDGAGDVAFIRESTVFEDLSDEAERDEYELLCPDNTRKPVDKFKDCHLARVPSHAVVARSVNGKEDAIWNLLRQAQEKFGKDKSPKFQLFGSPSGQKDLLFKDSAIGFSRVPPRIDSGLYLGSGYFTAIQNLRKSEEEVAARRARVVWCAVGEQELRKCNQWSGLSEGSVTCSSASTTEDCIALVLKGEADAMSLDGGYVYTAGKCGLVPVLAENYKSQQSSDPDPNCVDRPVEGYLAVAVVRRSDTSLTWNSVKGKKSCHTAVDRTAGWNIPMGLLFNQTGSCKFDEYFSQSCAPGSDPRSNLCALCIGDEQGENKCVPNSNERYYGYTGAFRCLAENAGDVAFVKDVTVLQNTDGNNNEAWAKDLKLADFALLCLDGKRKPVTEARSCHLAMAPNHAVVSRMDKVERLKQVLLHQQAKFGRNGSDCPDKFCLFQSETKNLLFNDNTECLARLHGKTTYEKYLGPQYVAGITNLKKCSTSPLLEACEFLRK
Sequence of Laminin subunit alpha-1 (Homo sapiens) (P25391 whole entry): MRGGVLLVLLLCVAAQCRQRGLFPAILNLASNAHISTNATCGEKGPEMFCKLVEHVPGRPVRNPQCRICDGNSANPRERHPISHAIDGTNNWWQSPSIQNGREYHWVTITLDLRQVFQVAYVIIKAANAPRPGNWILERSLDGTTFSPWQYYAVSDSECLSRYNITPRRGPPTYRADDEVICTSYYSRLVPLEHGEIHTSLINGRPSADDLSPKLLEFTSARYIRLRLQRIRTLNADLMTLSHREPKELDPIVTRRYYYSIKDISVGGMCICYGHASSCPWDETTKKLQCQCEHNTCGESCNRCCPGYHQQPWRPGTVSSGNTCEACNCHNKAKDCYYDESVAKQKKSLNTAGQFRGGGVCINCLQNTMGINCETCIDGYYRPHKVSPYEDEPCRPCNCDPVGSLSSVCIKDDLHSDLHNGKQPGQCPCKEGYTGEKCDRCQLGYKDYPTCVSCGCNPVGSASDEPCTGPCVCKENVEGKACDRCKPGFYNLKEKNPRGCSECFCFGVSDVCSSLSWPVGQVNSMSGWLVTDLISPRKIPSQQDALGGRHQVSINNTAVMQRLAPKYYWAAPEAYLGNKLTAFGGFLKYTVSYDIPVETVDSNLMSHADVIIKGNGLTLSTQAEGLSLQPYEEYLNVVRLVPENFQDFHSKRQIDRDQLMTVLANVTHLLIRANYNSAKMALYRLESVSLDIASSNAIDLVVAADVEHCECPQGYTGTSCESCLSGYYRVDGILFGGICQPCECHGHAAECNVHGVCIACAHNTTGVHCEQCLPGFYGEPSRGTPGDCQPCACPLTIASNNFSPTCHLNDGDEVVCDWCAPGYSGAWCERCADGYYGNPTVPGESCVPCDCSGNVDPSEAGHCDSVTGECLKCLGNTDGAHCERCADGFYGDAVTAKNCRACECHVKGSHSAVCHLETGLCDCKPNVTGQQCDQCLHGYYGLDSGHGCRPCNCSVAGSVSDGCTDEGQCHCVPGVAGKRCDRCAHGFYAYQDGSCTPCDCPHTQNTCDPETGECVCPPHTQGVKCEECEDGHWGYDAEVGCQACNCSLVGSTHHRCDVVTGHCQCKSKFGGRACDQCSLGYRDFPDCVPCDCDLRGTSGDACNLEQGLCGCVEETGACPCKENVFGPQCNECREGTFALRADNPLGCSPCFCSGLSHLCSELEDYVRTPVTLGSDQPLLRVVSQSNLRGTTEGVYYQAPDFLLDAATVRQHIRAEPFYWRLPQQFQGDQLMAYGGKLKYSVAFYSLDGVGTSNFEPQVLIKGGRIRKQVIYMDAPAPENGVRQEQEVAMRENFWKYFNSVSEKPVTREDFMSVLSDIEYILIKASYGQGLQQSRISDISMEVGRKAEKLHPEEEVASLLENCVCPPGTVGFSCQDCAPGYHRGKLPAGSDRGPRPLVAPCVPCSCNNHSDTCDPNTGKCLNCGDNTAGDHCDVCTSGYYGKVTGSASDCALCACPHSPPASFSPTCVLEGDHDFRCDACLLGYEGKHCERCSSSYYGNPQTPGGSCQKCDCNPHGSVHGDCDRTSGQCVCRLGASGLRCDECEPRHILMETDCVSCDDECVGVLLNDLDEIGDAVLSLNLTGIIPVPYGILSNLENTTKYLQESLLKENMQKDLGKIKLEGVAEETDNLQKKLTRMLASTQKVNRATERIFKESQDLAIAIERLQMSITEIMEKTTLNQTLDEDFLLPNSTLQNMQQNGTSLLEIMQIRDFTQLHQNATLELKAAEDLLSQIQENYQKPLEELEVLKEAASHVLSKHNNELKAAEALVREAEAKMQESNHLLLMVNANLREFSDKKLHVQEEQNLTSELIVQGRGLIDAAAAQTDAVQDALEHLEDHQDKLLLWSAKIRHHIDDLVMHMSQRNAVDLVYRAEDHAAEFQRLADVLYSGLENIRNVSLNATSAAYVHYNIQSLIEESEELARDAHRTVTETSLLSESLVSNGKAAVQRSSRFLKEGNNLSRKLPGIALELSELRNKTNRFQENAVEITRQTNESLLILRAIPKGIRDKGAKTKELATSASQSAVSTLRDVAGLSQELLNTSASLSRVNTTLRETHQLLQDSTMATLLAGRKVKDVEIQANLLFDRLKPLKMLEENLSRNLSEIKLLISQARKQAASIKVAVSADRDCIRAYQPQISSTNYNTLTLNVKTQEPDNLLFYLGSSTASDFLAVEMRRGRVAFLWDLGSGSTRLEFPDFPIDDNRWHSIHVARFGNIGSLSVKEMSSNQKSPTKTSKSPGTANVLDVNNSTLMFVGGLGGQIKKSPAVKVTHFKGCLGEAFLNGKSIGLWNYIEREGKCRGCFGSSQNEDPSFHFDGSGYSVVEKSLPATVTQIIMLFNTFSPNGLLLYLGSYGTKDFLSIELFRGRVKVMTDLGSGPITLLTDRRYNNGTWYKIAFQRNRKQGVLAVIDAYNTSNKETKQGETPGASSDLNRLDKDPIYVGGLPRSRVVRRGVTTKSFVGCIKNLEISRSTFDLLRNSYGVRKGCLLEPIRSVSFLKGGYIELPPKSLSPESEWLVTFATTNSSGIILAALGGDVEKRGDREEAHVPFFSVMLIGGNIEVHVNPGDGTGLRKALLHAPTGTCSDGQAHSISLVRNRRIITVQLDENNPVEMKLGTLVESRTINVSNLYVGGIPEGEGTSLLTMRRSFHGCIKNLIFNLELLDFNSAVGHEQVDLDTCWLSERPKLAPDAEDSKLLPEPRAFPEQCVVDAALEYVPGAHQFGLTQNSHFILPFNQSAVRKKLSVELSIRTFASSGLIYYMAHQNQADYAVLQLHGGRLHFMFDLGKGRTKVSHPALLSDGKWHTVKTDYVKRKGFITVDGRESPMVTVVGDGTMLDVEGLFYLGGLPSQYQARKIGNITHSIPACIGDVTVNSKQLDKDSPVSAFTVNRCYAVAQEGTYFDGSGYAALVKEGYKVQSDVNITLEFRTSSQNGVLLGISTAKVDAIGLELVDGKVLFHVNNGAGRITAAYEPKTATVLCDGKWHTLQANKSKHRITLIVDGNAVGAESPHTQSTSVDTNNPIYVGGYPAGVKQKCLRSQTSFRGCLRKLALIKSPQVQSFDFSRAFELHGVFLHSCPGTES

Compound | Activity (Maackia amurensis) | Activity (Datura stramonium) | Activity (Arachis hypogaea) | Activity [1] | Activity (Erythrina crista-galli) | Activity (Triticum aestivum) | Activity (Canavalia ensiformis) | Activity [2] | Activity (Homo sapiens [3]) | Activity [4] | Activity [5] | Activity [6] | Activity (Homo sapiens [7]) | Activity [8]
CC[C@H](C)[C@H](NC(=O)[C@H](C)NC(=O)CNC(=O)[C@H](CCCNC(=N)N)NC(=O)[C@@H](NC(=O)CCCC(C)=O)[C@@H](C)O)C(=O)N[C@H](C(=O)N[C@@H](CCC(N)=O)C(=O)N[C@H](C(=O)N1CCC[C@H]1C(=O)N[C@H](C(=O)N[C@@H](CC(C)C)C(=O)NCC(=O)N1CCC[C@H]1C(=O)N[C@H](C(=O)N[C@@H](CCC(N)=O)C(=O)N1CCC[C@H]1C(=O)N[C@H](C(=O)N[C@@H](CCCNC(=N)N)C(=O)N[C@H](C(N)=O)C(C)C)[C@@H](C)O)[C@@H](C)CC)[C@@H](C)O[C@H]1O[C@H](CO)[C@@H](O)[C@H](O)[C@@H]1O[C@@H]1O[C@H](CO)[C@@H](O[C@@H]2O[C@H](CO)[C@H](O)[C@H](O[C@]3(C(=O)O)C[C@H](O)[C@@H](NC(C)=O)[C@H]([C@H](O)[C@H](O)CO)O3)[C@H]2O)[C@H](O)[C@H]1NC(C)=O)[C@@H](C)O[C@H]1O[C@H](CO)[C@@H](O)[C@H](O)[C@@H]1O[C@@H]1O[C@H](CO)[C@@H](O[C@@H]2O[C@H](CO)[C@H](O)[C@H](O[C@]3(C(=O)O)C[C@H](O)[C@@H](NC(C)=O)[C@H]([C@H](O)[C@H](O)CO)O3)[C@H]2O)[C@H](O)[C@H]1NC(C)=O)[C@@H](C)CC ({Hexanoyl(5-oxo)}-TRGAIIQT(X1)PT(X1)LGPIQPTRV-NH2) | inactive | inactive | Active | Active | Active | Active | Active | Active | inactive | inactive | Active | Active | Active | Active
CC[C@H](C)[C@H](NC(=O)[C@H](C)NC(=O)CNC(=O)[C@H](CCCNC(=N)N)NC(=O)[C@@H](NC(=O)CCCC(C)=O)[C@@H](C)O)C(=O)N[C@H](C(=O)N[C@@H](CCC(N)=O)C(=O)N[C@H](C(=O)N1CCC[C@H]1C(=O)N[C@H](C(=O)N[C@@H](CC(C)C)C(=O)NCC(=O)N1CCC[C@H]1C(=O)N[C@H](C(=O)N[C@@H](CCC(N)=O)C(=O)N1CCC[C@H]1C(=O)N[C@H](C(=O)N[C@@H](CCCNC(=N)N)C(=O)N[C@H](C(N)=O)C(C)C)[C@@H](C)O[C@H]1O[C@H](CO)[C@@H](O)[C@H](O)[C@@H]1O[C@@H]1O[C@H](CO)[C@@H](O[C@@H]2O[C@H](CO)[C@H](O)[C@H](O[C@]3(C(=O)O)C[C@H](O)[C@@H](NC(C)=O)[C@H]([C@H](O)[C@H](O)CO)O3)[C@H]2O)[C@H](O)[C@H]1NC(C)=O)[C@@H](C)CC)[C@@H](C)O)[C@@H](C)O[C@H]1O[C@H](CO)[C@@H](O)[C@H](O)[C@@H]1O[C@@H]1O[C@H](CO)[C@@H](O[C@@H]2O[C@H](CO)[C@H](O)[C@H](O[C@]3(C(=O)O)C[C@H](O)[C@@H](NC(C)=O)[C@H]([C@H](O)[C@H](O)CO)O3)[C@H]2O)[C@H](O)[C@H]1NC(C)=O)[C@@H](C)CC ({Hexanoyl(5-oxo)}-TRGAIIQT(X1)PTLGPIQPT(X1)RV-NH2) | inactive | inactive | Active | Active | Active | Active | Active | Active | inactive | inactive | Active | Active | Active | Active
CC[C@H](C)[C@H](NC(=O)[C@H](C)NC(=O)CNC(=O)[C@H](CCCNC(=N)N)NC(=O)[C@@H](NC(=O)CCCC(C)=O)[C@@H](C)O)C(=O)N[C@H](C(=O)N[C@@H](CCC(N)=O)C(=O)N[C@H](C(=O)N1CCC[C@H]1C(=O)N[C@H](C(=O)N[C@@H](CC(C)C)C(=O)NCC(=O)N1CCC[C@H]1C(=O)N[C@H](C(=O)N[C@@H](CCC(N)=O)C(=O)N1CCC[C@H]1C(=O)N[C@H](C(=O)N[C@@H](CCCNC(=N)N)C(=O)N[C@H](C(N)=O)C(C)C)[C@@H](C)O)[C@@H](C)CC)[C@@H](C)O)[C@@H](C)O[C@H]1O[C@H](CO)[C@@H](O)[C@H](O)[C@@H]1O[C@@H]1O[C@H](CO)[C@@H](O[C@@H]2O[C@H](CO)[C@H](O)[C@H](O[C@]3(C(=O)O)C[C@H](O)[C@@H](NC(C)=O)[C@H]([C@H](O)[C@H](O)CO)O3)[C@H]2O)[C@H](O)[C@H]1NC(C)=O)[C@@H](C)CC ({Hexanoyl(5-oxo)}-TRGAIIQT(X1)PTLGPIQPTRV-NH2) | inactive | inactive | Active | Active | Active | Active | Active | Active | inactive | inactive | Active | Active | Active | Active

Results, then the compound that gave them:

Activity (Maackia amurensis) | Activity (Datura stramonium) | Activity (Arachis hypogaea) | Activity [1] | Activity (Erythrina crista-galli) | Activity (Triticum aestivum) | Activity (Canavalia ensiformis) | Activity [2] | Activity (Homo sapiens [3]) | Activity [4] | Activity [5] | Activity [6] | Activity (Homo sapiens [7]) | Activity [8] | Compound
inactive | inactive | Active | Active | Active | Active | Active | Active | inactive | inactive | Active | Active | Active | Active | CC[C@H](C)[C@H](NC(=O)[C@H](C)NC(=O)CNC(=O)[C@H](CCCNC(=N)N)NC(=O)[C@@H](NC(=O)CCCC(C)=O)[C@@H](C)O)C(=O)N[C@H](C(=O)N[C@@H](CCC(N)=O)C(=O)N[C@H](C(=O)N1CCC[C@H]1C(=O)N[C@H](C(=O)N[C@@H](CC(C)C)C(=O)NCC(=O)N1CCC[C@H]1C(=O)N[C@H](C(=O)N[C@@H](CCC(N)=O)C(=O)N1CCC[C@H]1C(=O)N[C@H](C(=O)N[C@@H](CCCNC(=N)N)C(=O)N[C@H](C(N)=O)C(C)C)[C@@H](C)O[C@H]1O[C@H](CO)[C@@H](O)[C@H](O)[C@@H]1O[C@@H]1O[C@H](CO)[C@@H](O[C@@H]2O[C@H](CO)[C@H](O)[C@H](O)[C@H]2O)[C@H](O)[C@H]1NC(C)=O)[C@@H](C)CC)[C@@H](C)O[C@H]1O[C@H](CO)[C@@H](O)[C@H](O)[C@@H]1O[C@@H]1O[C@H](CO)[C@@H](O[C@@H]2O[C@H](CO)[C@H](O)[C@H](O)[C@H]2O)[C@H](O)[C@H]1NC(C)=O)[C@@H](C)O[C@H]1O[C@H](CO)[C@@H](O)[C@H](O)[C@@H]1O[C@@H]1O[C@H](CO)[C@@H](O[C@@H]2O[C@H](CO)[C@H](O)[C@H](O)[C@H]2O)[C@H](O)[C@H]1NC(C)=O)[C@@H](C)CC ({Hexanoyl(5-oxo)}-TRGAIIQT(X2)PT(X2)LGPIQPT(X2)RV-NH2)
inactive | inactive | Active | Active | Active | Active | Active | Active | inactive | inactive | Active | Active | Active | Active | CC[C@H](C)[C@H](NC(=O)[C@H](C)NC(=O)CNC(=O)[C@H](CCCNC(=N)N)NC(=O)[C@@H](NC(=O)CCCC(C)=O)[C@@H](C)O)C(=O)N[C@H](C(=O)N[C@@H](CCC(N)=O)C(=O)N[C@H](C(=O)N1CCC[C@H]1C(=O)N[C@H](C(=O)N[C@@H](CC(C)C)C(=O)NCC(=O)N1CCC[C@H]1C(=O)N[C@H](C(=O)N[C@@H](CCC(N)=O)C(=O)N1CCC[C@H]1C(=O)N[C@H](C(=O)N[C@@H](CCCNC(=N)N)C(=O)N[C@H](C(N)=O)C(C)C)[C@@H](C)O)[C@@H](C)CC)[C@@H](C)O[C@H]1O[C@H](CO)[C@@H](O)[C@H](O)[C@@H]1O[C@@H]1O[C@H](CO)[C@@H](O[C@@H]2O[C@H](CO)[C@H](O)[C@H](O)[C@H]2O)[C@H](O)[C@H]1NC(C)=O)[C@@H](C)O[C@H]1O[C@H](CO)[C@@H](O)[C@H](O)[C@@H]1O[C@@H]1O[C@H](CO)[C@@H](O[C@@H]2O[C@H](CO)[C@H](O)[C@H](O)[C@H]2O)[C@H](O)[C@H]1NC(C)=O)[C@@H](C)CC ({Hexanoyl(5-oxo)}-TRGAIIQT(X2)PT(X2)LGPIQPTRV-NH2)
